What was measured:
Test in all cases: relative viability (nuclei count vs DMSO), 5 days (fraction); higher = more cells survive
HCC-44 = test system: HCC-44
Method in brief: (§1)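 Dosing by pin tool came one day after lung cancer cell lines were seeded in 1536-well plates, using either one drug or a fixed anchor-drug dose plus five library-drug doses (not always all listed) in √10 steps. After 5 days, nuclei were counted on 4× images. Relative viability is treated-well nuclei count divided by vehicle-well nuclei count, and values are medians of duplicate plates.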

NCI-H358 = test system: NCI-H358
Method in brief: as §1

EPLC-272H = test system: EPLC-272H
Method in brief: as §1

ABC-1 = test system: ABC-1
Method in brief: as §1

COR-L 105 = test system: COR-L 105
Method in brief: as §1

NCI-H647 = test system: NCI-H647
Method in brief: as §1

COR-L23 = test system: COR-L23
Method in brief: as §1

NCI-H520 = test system: NCI-H520
Method in brief: as §1

NCI-H1975 = test system: NCI-H1975
Method in brief: as §1

201T = test system: 201T
Method in brief: as §1

NCI-H727 = test system: NCI-H727
Method in brief: as §1

HCC-15 = settings: first compound 0.08 µM
Method in brief: as §1

O=c1[nH]c2ccccc2n1C1CCN(CCCC(c2ccc(F)cc2)c2ccc(F)cc2)CC1 [Pimozide] + CS(=O)(=O)N1CCN(Cc2cc3nc(-c4cccc5[nH]ncc45)nc(N4CCOCC4)c3s2)CC1 [Pictilisib] (partner 1 µM) gave a relative viability (HCC-44; first compound 0.08 µM) of 0.58, a relative viability (HCC-44; first compound 0.253 µM) of 0.695 and a relative viability (HCC-44; first compound 0.8 µM) of 0.565. The relative viability (HCC-44; first compound 2.53 µM) was 0.576, the relative viability (HCC-44; first compound 8 µM) was 0.558 and the relative viability (NCI-H358; first compound 0.08 µM) was 0.292. The relative viability (NCI-H358; first compound 0.253 µM) was 0.324, the relative viability (NCI-H358; first compound 0.8 µM) was 0.384 and the relative viability (NCI-H358; first compound 2.53 µM) was 0.356. The relative viability (NCI-H358; first compound 8 µM) was 0.396, the relative viability (EPLC-272H; first compound 0.08 µM) was 0.302 and the relative viability (EPLC-272H; first compound 0.253 µM) was 0.269. It also gave a relative viability (EPLC-272H; first compound 0.8 µM) of 0.273, a relative viability (EPLC-272H; first compound 2.53 µM) of 0.258 and a relative viability (EPLC-272H; first compound 8 µM) of 0.238. For the same compound, the relative viability (ABC-1; first compound 0.08 µM) was 0.596, the relative viability (ABC-1; first compound 0.253 µM) was 0.84 and the relative viability (ABC-1; first compound 0.8 µM) was 0.743. For the same compound, the relative viability (ABC-1; first compound 2.53 µM) was 0.589, the relative viability (ABC-1; first compound 8 µM) was 0.474 and the relative viability (COR-L 105; first compound 0.253 µM) was 0.507. It also gave a relative viability (COR-L 105; first compound 0.8 µM) of 0.449, a relative viability (COR-L 105; first compound 2.53 µM) of 0.338 and a relative viability (COR-L 105; first compound 8 µM) of 0.353. It also gave a relative viability (NCI-H647; first compound 0.08 µM) of 0.389, a relative viability (NCI-H647; first compound 0.253 µM) of 0.39 and a relative viability (NCI-H647; first compound 0.8 µM) of 0.448. For the same compound, the relative viability (NCI-H647; first compound 2.53 µM) was 0.383, the relative viability (NCI-H647; first compound 8 µM) was 0.334 and the relative viability (COR-L23; first compound 0.08 µM) was 0.705. For the same compound, the relative viability (COR-L23; first compound 0.253 µM) was 0.75, the relative viability (COR-L23; first compound 0.8 µM) was 0.638 and the relative viability (COR-L23; first compound 2.53 µM) was 0.702. It also gave a relative viability (COR-L23; first compound 8 µM) of 0.632, a relative viability (NCI-H520; first compound 0.08 µM) of 0.294 and a relative viability (NCI-H520; first compound 0.253 µM) of 0.337. It also gave a relative viability (NCI-H520; first compound 0.8 µM) of 0.248, a relative viability (NCI-H520; first compound 2.53 µM) of 0.256 and a relative viability (NCI-H520; first compound 8 µM) of 0.259. It also gave a relative viability (NCI-H1975; first compound 0.08 µM) of 0.282, a relative viability (NCI-H1975; first compound 0.253 µM) of 0.262 and a relative viability (NCI-H1975; first compound 0.8 µM) of 0.297. The relative viability (NCI-H1975; first compound 2.53 µM) was 0.28, the relative viability (NCI-H1975; first compound 8 µM) was 0.202 and the relative viability (201T; first compound 0.08 µM) was 0.69. The relative viability (201T; first compound 0.253 µM) was 0.613, the relative viability (201T; first compound 0.8 µM) was 0.6 and the relative viability (201T; first compound 2.53 µM) was 0.669. It also gave a relative viability (201T; first compound 8 µM) of 0.599, a relative viability (NCI-H727; first compound 0.08 µM) of 0.367 and a relative viability (NCI-H727; first compound 0.253 µM) of 0.357. For the same compound, the relative viability (NCI-H727; first compound 0.8 µM) was 0.389, the relative viability (NCI-H727; first compound 2.53 µM) was 0.308 and the relative viability (NCI-H727; first compound 8 µM) was 0.434. It also gave a relative viability (HCC-15) of 0.809.

Reference: the supplement of paper PMC10307832
